Results: publication PMC8507159, “Degradation of epigallocatechin and epicatechin gallates by a novel tannase TanHcw from Herbaspirillum camelliae” (Microbial Cell Factories, 2021)

Test system: T1, TanHcw
T1 construct: C-terminal His-tag, pET23a, E. coli BL21(DE3) pLysS; 39 kDa on gel
Assay: gallic acid release, rhodanine chromogen at […] nm; Lineweaver-Burk
Assay type: biochemical, Herbaspirillum camelliae
Conditions: 0.1-2.0 mM substrate

Compound | Km (pH 7.0, 40 °C) [µM] | Km (pH 6.0, 30 °C) [µM]
O=C(O[C@@H]1Cc2c(O)cc(O)cc2O[C@@H]1c1cc(O)c(O)c(O)c1)c1cc(O)c(O)c(O)c1 [EGCG, (–)–epigallocatechin-3-gallate] | 300 ± 10 | 
COC(=O)c1cc(O)c(O)c(O)c1 [MG, Methyl gallate] |  | 820 ± 20
O=C(O[C@@H]1Cc2c(O)cc(O)cc2O[C@@H]1c1ccc(O)c(O)c1)c1cc(O)c(O)c(O)c1 [ECG, (–)–epicatechin-3-gallate] | 330 ± 10 | 
